How the values were obtained:
Details in all cases: 72 h
Calu-3 [1] = assay: drug sensitivity score (DSS) for viability; higher = more toxic; extreme values may be limits of the assay
Vero E6 [2] = assay: as above
HepG2 [3] = assay: as above
U2OS [4] = assay: as above
Caco-2 [5] = assay: relative viability EC50 (midpoint between 100% and the lowest measured viability); higher = less toxic
Vero E6 [6] = assay: as above
HepG2 [7] = assay: as above
U2OS [8] = assay: as above
Caco-2 [9] = assay: drug sensitivity score (DSS) for viability; higher = more toxic; extreme values may be limits of the assay
Caco-2 [10] = assay: cell viability relative to DMSO; higher = less toxic
Vero E6 [11] = assay: as above
HepG2 [12] = assay: as above
U2OS [13] = assay: as above
Calu-3 [14] = assay: as above
Calu-3 [15] = assay: relative viability EC50 (midpoint between 100% and the lowest measured viability); higher = less toxic

| Compound | drug sensitivity score (Calu-3 [1]) | drug sensitivity score (Vero E6 [2]) | drug sensitivity score (HepG2 [3]) | drug sensitivity score (U2OS [4]) | relative viability EC50 (Caco-2 [5]) | relative viability EC50 (Vero E6 [6]) | relative viability EC50 (HepG2 [7]) | relative viability EC50 (U2OS [8]) | drug sensitivity score (Caco-2 [9]) | cell viability (Caco-2 [10]; 1 nM) | cell viability (Caco-2 [10]; 10 nM) | cell viability (Caco-2 [10]; 100 nM) | cell viability (Caco-2 [10]; 1000 nM) | cell viability (Caco-2 [10]; 10000 nM) | cell viability (Vero E6 [11]; 1 nM) | cell viability (Vero E6 [11]; 10 nM) | cell viability (Vero E6 [11]; 100 nM) | cell viability (Vero E6 [11]; 1000 nM) | cell viability (Vero E6 [11]; 10000 nM) | cell viability (HepG2 [12]; 1 nM) | cell viability (HepG2 [12]; 10 nM) | cell viability (HepG2 [12]; 100 nM) | cell viability (HepG2 [12]; 1000 nM) | cell viability (HepG2 [12]; 10000 nM) | cell viability (U2OS [13]; 1 nM) | cell viability (U2OS [13]; 10 nM) | cell viability (U2OS [13]; 100 nM) | cell viability (U2OS [13]; 1000 nM) | cell viability (U2OS [13]; 10000 nM) | cell viability (Calu-3 [14]; 1 nM) | cell viability (Calu-3 [14]; 10 nM) | cell viability (Calu-3 [14]; 100 nM) | cell viability (Calu-3 [14]; 1000 nM) | cell viability (Calu-3 [14]; 10000 nM) | relative viability EC50 (Calu-3 [15]) |
| --- | --- | --- | --- | --- | --- | --- | --- | --- | --- | --- | --- | --- | --- | --- | --- | --- | --- | --- | --- | --- | --- | --- | --- | --- | --- | --- | --- | --- | --- | --- | --- | --- | --- | --- | --- |
| CCCCCCCN(CC)CCC[C@@H](O)c1ccc(NS(C)(=O)=O)cc1 (racemic) [ibutilide] | 0 | 0 | 0 | 0 | – | – | – | – | – | – | – | – | – | – | – | – | – | – | – | – | – | – | – | – | – | – | – | – | – | – | – | – | – | – | – |
| O=C(O)/C=C(/CC(=O)O)C(=O)O [cis-aconitic-acid] | – | 0 | 0 | 0 | > 10 µM | > 10 µM | > 10 µM | > 10 µM | 0 | 88.4% | 97.1% | 98.6% | 90% | 93.4% | 99% | 103% | 94.9% | 97.8% | 109% | 105% | 105% | 91.6% | 113% | 98.9% | 98.3% | 99.1% | 101% | 96.7% | 103% | – | – | – | – | – | – |
| CC(C)Nc1cc(-c2c[nH]c(C(=O)N[C@H](CO)c3cccc(Cl)c3)c2)c(Cl)cn1 [BVD-523] | 3.5 | 4.5 | 10.5 | 1.9 | – | – | 0.703 µM | – | 4.7 | 105% | 106% | 101% | 76.7% | 61.2% | 100% | 104% | 91.9% | 80.7% | 52.9% | 104% | 102% | 92.6% | 51.4% | 19.5% | 103% | 101% | 95.5% | 96.7% | 69.3% | 106% | 97.4% | 89.7% | 92.1% | 57.5% | – |
| O=C(Nc1cccc2cccnc12)c1ccc(N2C(=O)[C@@H]3[C@H](C2=O)[C@@H]2C=C[C@H]3C2)cc1 [endo-IWR-1] | 2.9 | 3.9 | 0 | 0 | – | – | – | – | 0 | 96% | 94.3% | 101% | 89.2% | 94.2% | 110% | 105% | 97.6% | 78.8% | 66.7% | 108% | 103% | 98.5% | – | 91.7% | – | 105% | 103% | 98% | 93.3% | – | 108% | 98.9% | 81.8% | 74.4% | – |
| CC1(C)CCC(C)(C)c2cc(Cn3cccn3)c(/C=C/c3ccc(C(=O)O)cc3)cc21 [palovarotene] | – | 0 | 0 | 0 | > 10 µM | > 10 µM | > 10 µM | > 10 µM | 0 | 107% | 93.7% | 94.8% | 96% | 92.9% | 100% | 104% | 100% | 106% | 98.3% | 95.4% | 99.7% | 103% | 113% | 99.4% | 105% | 99.6% | 102% | 94% | 94.8% | – | – | – | – | – | – |
| COc1cc(NS(=O)(=O)c2ccc(N)cc2)ncn1 [sulfamonomethoxine] | – | 0 | 0 | 0 | > 10 µM | > 10 µM | > 10 µM | > 10 µM | 0 | 92.6% | 102% | 95.4% | 98.4% | 98.7% | 106% | 106% | 106% | 104% | 97% | 108% | 104% | 115% | 107% | 90.9% | 101% | 99.7% | 101% | 102% | 100% | – | – | – | – | – | – |
| CN(C)C(=S)SC(=S)N(C)C [tetramethylthiuram-monosulfide] | 8.4 | 8.1 | 11.3 | 5.7 | – | – | – | – | – | – | – | – | – | – | – | – | – | – | – | – | – | – | – | – | – | – | – | – | – | – | – | – | – | – | – |
| N=C(Nc1ccccc1)Nc1ccccc1 [diphenylguanidine] | – | 0 | 0 | 0 | > 10 µM | > 10 µM | > 10 µM | > 10 µM | 0 | 92.4% | 93.5% | 91.5% | 94.2% | 107% | 100% | 95.1% | 103% | 91.8% | 104% | 117% | 92.6% | 103% | 101% | 101% | 98.4% | 98% | 95.3% | 100% | 106% | – | – | – | – | – | – |
| CC(C)CNc1ccnc(NCc2csc(-c3ccccc3)n2)n1 [KHS-101] | 3.2 | 0.7 | 6.9 | 1.6 | – | > 10 µM | 1.92 µM | – | 4.6 | 91.3% | 103% | 98.1% | 85.2% | 53.3% | 103% | 99% | 103% | 101% | 78.1% | 104% | 102% | 95.3% | 86.4% | 16.4% | 99.9% | 97.9% | 102% | 97% | 72.9% | 94.1% | 91.6% | 101% | 89.3% | 64.8% | – |
| CNC(=O)c1ccc(C)c(-n2c(C)cc(OCc3ccc(F)cc3F)c(Br)c2=O)c1 | 5.2 | 5 | 1.5 | 3.1 | > 10 µM | – | – | > 10 µM | 3.1 | 90.9% | 95.3% | 93% | 79.6% | 75.4% | 98.7% | 92% | 85.5% | 82.3% | 58.8% | 111% | 104% | 106% | 99.7% | 67.7% | 101% | 99.2% | 90.2% | 81.9% | 78.7% | 94.7% | 92.6% | 74% | 93.6% | 56.8% | – |
| CCOC(=O)c1cc2ccc(O)cc2oc1=O [YZ9] | – | 0 | 0 | 0 | > 10 µM | > 10 µM | > 10 µM | > 10 µM | 0 | 98.6% | 94.3% | 102% | 98.8% | 99.5% | 92% | 95.5% | 96.3% | 101% | 102% | 98.6% | 103% | 107% | 96.5% | 117% | 99.3% | 94.7% | 92.9% | 103% | 104% | – | – | – | – | – | – |
| CC(O)c1cc(C(=O)N[C@@H](C)Cn2ccc(-c3ccc(C#N)c(Cl)c3)n2)n[nH]1 (stereo partly drawn) [ODM-201] | – | 0 | 0 | 0 | > 10 µM | > 10 µM | > 10 µM | > 10 µM | 0 | 104% | 89.8% | 102% | 106% | 103% | 95.6% | 101% | 93.1% | 94.5% | 103% | 88.1% | 111% | 92.6% | 112% | 105% | 98.3% | 98.2% | 103% | 93.4% | 111% | – | – | – | – | – | – |
| CC(=C\c1ccc(Cl)cc1)/C(C)=N/O [AP-18] | – | 0 | 0 | 0 | > 10 µM | > 10 µM | > 10 µM | > 10 µM | 0 | 99.5% | 104% | 90.4% | 98.1% | 95.7% | 104% | 106% | 102% | 105% | 99.3% | 103% | 95.3% | 89.6% | 101% | 107% | 100% | 106% | 97.6% | 103% | 100% | – | – | – | – | – | – |
| CCN(CC)CCNC(=O)c1cc(Cl)c(N)cc1OC [metoclopramide] | 0 | 0 | 0 | 0 | – | – | – | – | – | – | – | – | – | – | – | – | – | – | – | – | – | – | – | – | – | – | – | – | – | – | – | – | – | – | – |
| Cn1ncnc1COc1nn2c(-c3cc(F)ccc3F)nnc2cc1C(C)(C)C | 0 | 0 | 0 | 0 | – | – | – | – | – | – | – | – | – | – | – | – | – | – | – | – | – | – | – | – | – | – | – | – | – | – | – | – | – | – | – |
| NC(=O)c1nc(F)cnc1O [Favipiravir] | 0 | – | 0 | – | – | – | > 10 µM | – | – | – | – | – | – | – | – | – | – | – | – | 104% | 102% | 109% | 91.8% | 98.2% | – | – | – | – | – | 101% | 93.2% | 92.5% | 94.6% | 107% | > 10 µM |
| CCCC(CCC)C(=O)Nc1ccn([C@@H]2O[C@H](CO)[C@@H](O)C2(F)F)c(=O)n1 | 2.3 | 2 | 13 | 1 | – | – | 0.259 µM | – | 2.1 | 94.7% | 106% | 94.3% | 96.3% | 66.7% | 93.7% | 93% | 87.7% | 98.3% | 63% | 98.3% | 108% | 85% | 39.4% | 30.1% | 97.5% | 100% | 101% | 110% | 68.2% | 98.3% | 97.3% | 91% | 91.7% | 67.9% | – |
| N#C[C@@H]1CCCN1C(=O)CNC12CC3CC(CC(O)(C3)C1)C2 [vildagliptin] | 0 | 0 | 0 | – | – | – | – | – | – | – | – | – | – | – | – | – | – | – | – | – | – | – | – | – | – | – | – | – | – | – | – | – | – | – | – |
| Cc1cc(=O)n(-c2ccccc2)n1C [phenazone] | 0 | 0 | 0.8 | 0 | – | – | – | – | – | – | – | – | – | – | – | – | – | – | – | – | – | – | – | – | – | – | – | – | – | – | – | – | – | – | – |
| Nc1cc(N2CCCCC2)nc(N)[n+]1[O-] [minoxidil] | 0 | 0 | 0 | 0 | – | – | – | – | – | – | – | – | – | – | – | – | – | – | – | – | – | – | – | – | – | – | – | – | – | – | – | – | – | – | – |
| CCCCCCCCCCCCCCCC=O [1-hexadecanal] | – | 0 | 0 | 0 | > 10 µM | > 10 µM | > 10 µM | > 10 µM | 0 | 104% | 98% | 85.6% | 95.2% | 108% | 106% | 98.4% | 106% | 96.5% | 102% | 109% | 105% | 102% | 95.8% | 97% | 102% | 104% | 96.3% | 104% | 97.5% | – | – | – | – | – | – |

Reference: the supplement of paper PMC13380429
